Consider four compounds from publication PMC3355380, “Back to the Future: Lessons Learned in Modern Target-based and Whole-Cell Lead Optimization of Antimalarials” (Current Topics in Medicinal Chemistry, 2012).

Each structure is given as a SMILES string. In brackets after ≈: the same amount, converted by molar mass. Where two headings read alike, the source gives them in different places. Marks after values point to notes of the source that are not given here.

In series [1] the test system is Plasmodium berghei. The experiment in a line: P. berghei murine model. The class given is in vivo.
Series [2] is described as follows: aqueous solubility. Particulars: aqueous medium, pH 6.8, aqueous buffer. The class given is physicochemical.
Series [3] in a line: PAMPA permeability assay. The class given is in vitro ADME. An excerpt: Access to these types of in vitro assays, both within industry and academia, can greatly accelerate the drug discovery process.
The test system of series [4] is P. falciparum NF54. The arrangement: method as in PMID 20813948. Particulars: Fig. 4; cited from earlier work.
Series [5] relates to chloroquine-resistant K1 P. falciparum strain. Also noted: method as in PMID 20813948. To be noted: Fig. 4; cited from earlier work.
A short description of series [6]: in vivo PK in mouse.
For series [7], the system named is P. falciparum 3D7. The experiment in a line: P. falciparum 3D7 proliferation assay. It counts as cell-based, Plasmodium falciparum. Particulars: Plasmodium falciparum, 3D7; imidazolopiperazine hits; mean of two experiments; read-out: P. falciparum 3D7 EC50. An excerpt:
(§1) We screened both our in-house compound collection (~2.3M compounds) and natural products library (12,000 compounds) using a cell based Plasmodium falciparum proliferation assay. This screen provided data on a large number of chemically diverse anti-malarial compounds. These nearly 5700 hits have been deposited into the public EBI database by GNF/Novartis. A number of these hits originated from kinase-directed libraries and many of which are pan-kinase inhibitors. De-convoluting and eliminating inherent kinase activity with many of these scaffolds while maintaining cellular potency was the first step in the hit-to-lead phase for these particular chemotypes. What follows is a summary of the chemical optimization of some kinase-like and non-kinase scaffolds which came out of the whole-cell screening effort.

In series [8] the test system is P. falciparum W2. The experiment in a line: P. falciparum W2 proliferation assay. The class given is cell-based. Particulars: Plasmodium falciparum, imidazolopiperazine hits, mean of two experiments.
From the text: as §1

The target in series [9] is hERG (Homo sapiens, UniProt Q12809). Nature of the series: hERG binding assay. On the technique in general: The hERG channel carries a current that helps repolarise heart muscle cells.
Sequence of hERG (Q12809 whole entry): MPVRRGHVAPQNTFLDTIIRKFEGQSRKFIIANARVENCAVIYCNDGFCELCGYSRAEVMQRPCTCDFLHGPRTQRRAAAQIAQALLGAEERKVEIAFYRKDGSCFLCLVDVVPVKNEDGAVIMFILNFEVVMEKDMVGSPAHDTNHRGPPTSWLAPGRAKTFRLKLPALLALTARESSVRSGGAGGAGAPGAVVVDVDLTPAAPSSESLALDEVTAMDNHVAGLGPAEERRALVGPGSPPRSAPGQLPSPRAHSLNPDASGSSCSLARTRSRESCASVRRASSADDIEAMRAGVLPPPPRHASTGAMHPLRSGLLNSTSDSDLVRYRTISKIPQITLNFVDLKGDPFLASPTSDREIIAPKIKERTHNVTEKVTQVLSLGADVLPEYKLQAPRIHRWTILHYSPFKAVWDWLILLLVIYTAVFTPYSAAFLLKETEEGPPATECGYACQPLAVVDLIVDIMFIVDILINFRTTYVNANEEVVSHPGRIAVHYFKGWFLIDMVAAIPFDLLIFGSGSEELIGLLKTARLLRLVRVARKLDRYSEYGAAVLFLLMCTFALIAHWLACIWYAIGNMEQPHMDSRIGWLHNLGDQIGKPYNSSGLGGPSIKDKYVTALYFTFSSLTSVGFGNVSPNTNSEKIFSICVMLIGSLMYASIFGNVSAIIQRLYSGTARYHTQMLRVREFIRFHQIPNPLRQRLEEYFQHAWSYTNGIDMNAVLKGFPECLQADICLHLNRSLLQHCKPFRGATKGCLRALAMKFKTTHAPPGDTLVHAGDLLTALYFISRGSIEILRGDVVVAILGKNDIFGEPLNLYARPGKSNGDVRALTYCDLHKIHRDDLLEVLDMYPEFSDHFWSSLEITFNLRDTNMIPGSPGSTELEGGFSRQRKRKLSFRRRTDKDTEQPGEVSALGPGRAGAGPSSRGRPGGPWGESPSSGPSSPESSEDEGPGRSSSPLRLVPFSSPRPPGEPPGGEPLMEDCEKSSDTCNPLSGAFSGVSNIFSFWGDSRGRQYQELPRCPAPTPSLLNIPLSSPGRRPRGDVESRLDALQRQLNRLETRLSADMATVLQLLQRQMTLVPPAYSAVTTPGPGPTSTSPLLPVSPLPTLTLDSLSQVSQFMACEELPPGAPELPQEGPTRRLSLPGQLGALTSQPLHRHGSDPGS
The subject of series [10] is Huh7. To be noted: human.
The test system of series [11] is panel of cytochrome P450 isoforms. The experiment in a line: in vitro.
Series [12] is described as follows: 2-week rat toxicology study. The class given is in vivo.
Series [13] concerns the target WT-PfDHFR (wild type PfDHFR). Also noted: method as in PMID 20350951. Particulars: cited from earlier work.
For series [14], the target named is QM-PfDHFR (quadruple mutant PfDHFR). Also noted: method as in PMID 20350951. To be noted: cited from earlier work.
Series [15] addresses hDHFR (human DHFR). The arrangement: method as in PMID 20350951. Particulars: cited from earlier work.
For series [16], the system named is wild type P. falciparum. Also noted: method as in PMID 20350951. Particulars: read-out: EC50 on wild type P. falciparum in vitro; cited from earlier work.
Series [17] concerns P. falciparum NF54. Nature of the series: P. falciparum NF54 in vitro potency. The class given is cell-based. Particulars: Plasmodium falciparum, spiroindolones, Tables 8 and 9.
The nature of series [18]: metabolic stability in mouse liver microsomes. It counts as in vitro ADME. For orientation: Microsomes from liver hold many membrane-bound enzymes, among them those of drug oxidation.
Series [19] is described as follows: metabolic stability in human liver microsomes. The class given is in vitro ADME.
In series [20] the test system is Plasmodium berghei. Also noted: method as in earlier work. To be noted: single oral dose at 100 mg/kg; cited from earlier work.
Series [21] in a line: in vivo. Particulars: mouse, po.
[22] abbreviates: intrinsic clearance, high clearance corresponds to low stability.

With `CC1CCc2c([nH]c3ccccc23)C2(N1)C(=O)Nc1ccc(Br)cc12` (stereo not drawn) [Compound 21], in series [1] (single oral dose of 100 mg/kg), the mouse survival entry is reported as “slight prolongation in mouse survival over control” and the reduction in parasitemia is given as 96%. The solubility (usually how much of the substance goes into solution per volume) in series [2] came to 75 µM (≈ 29.7 µg/mL). In addition, in [3], the “permeability in a PAMPA assay” value was found to be 99%. In series [4], the concentration for a half-maximal effect (EC50) (in general, the concentration needed to bring the measured effect to its halfway point) is 90 nM. The EC50 in [5] is 80 nM. Also, in [6] (in vivo, po, 25 mg/kg), the maximum concentration (Cmax) (commonly the maximum level reached in the sampled fluid or tissue) is 1400 nM and the bioavailability – broadly, the share of a dose that reaches the circulation, judged against a reference dose that is usually intravenous – is 59%. The “oral T1/2” value in series [6] (single 25 mg/kg oral dose) is “four”.

As to `NCC(=O)N1CCn2c(nc(-c3ccccc3)c2Nc2ccc3c(c2)OCO3)C1` [Compound 18a], the concentration for a half-maximal effect (EC50) is 63 nM in series [7] and 97 nM in series [8]. The compound also yielded a solubility in series [2] of over 175 µM. For the same compound, the IC50 (in general, the point on the concentration scale where inhibition reaches its midpoint) was 19000 nM in [9] and over 10000 nM in series [11]. Besides, the “Cytotoxicity (µM) Huh7” value in series [10] is over 10 µM.

On to `COc1ccc(OC)c(CNc2ccc3nc(N)nc(N)c3c2Cl)c1` [QN254, 5-Chloro-N'6'-(2 5 di-methoxy-benzyl)-quinazoline-2 4 6-triamine], for which the “Cure Rate (%)” value is recorded as 80% in series [1] (3 x 30 (mg/kg)), 60% in [1] (3 x 60 (mg/kg)) and 20% in series [1] (3 x 100 (mg/kg)). Moreover, the “Toxicity Rate (%)” value is 0% in series [1] (3 x 30 (mg/kg)); 40^b % in [1] (3 x 60 (mg/kg), mice died around day 10 and were parasite free); 80^b % in series [1] (3 x 100 (mg/kg), mice died around day 10 and were parasite free). In addition, the “Average Survival” value in series [1] (3 x 30 (mg/kg), control survival 5.6 to 6.2 days) was found to be 28.4 days. Further, the “Parasitemia Reduction (%)” value is recorded as over 99.99% in [1] (3 x 60 (mg/kg)); over 99.99% in series [1] (3 x 100 (mg/kg)); over 99.99% in [1] (dosing regimen 3 x 30 (mg/kg), oral, compared to untreated controls). In series [12] (2-week toxicology study), the histopathological analysis result was “significant gastrointestinal and bone marrow toxicity”. In addition, in series [12] (2 weeks, repeated oral administration of greater than 50 mg/kg), the tolerability entry is given as “not tolerated”. In addition, the Ki – broadly, a measure of affinity in units of concentration, obtained from inhibition or displacement – in series [13] was 0.39 ± 0.05 nM; in series [14] it was 0.58 ± 0.06 nM; in series [15], 10.2 ± 0.6 nM. In [16], the EC50 was 9 nM.

`C[C@H]1Cc2c([nH]c3cc(Cl)c(F)cc23)[C@@]2(N1)C(=O)Nc1ccc(Cl)cc12` [Compound 30] registered an EC50 in [17] of 0.9 nM. In addition, in [18] (setting [22]), the “Liver Microsomes CLint, Mouse” value is listed as “Low”. Moreover, the half-life is 49 min in series [18] (mouse, liver microsomes, read-out: Liver Microsomes t1/2 (min), Mouse); 76 min in series [19] (human, liver microsomes, read-out: Liver Microsomes t1/2 (min), Human); 10 h in series [6] (in vivo, po). Also, the “Liver Microsomes CLint, Human” value in [19] (setting [22]) is recorded as “Low”. In [20], the “clearance of P. berghei infection” value is given as “completely cleared a P. berghei infection in all treated mice”. Further, the bioavailability in series [21] was 100%.
